In US20080318999A1, “Tricyclic Benzimidazoles and Their Use as Metabotropic Glutamate Receptor Modulators” (priority 2005, published 2008):

Biological target: T1, human mGluR2 (Homo sapiens, UniProt Q14416)
T1 construct: If the GTPgammaS assay gave them: nothing
Test: mGluR2 allosteric activator assays described herein (FLIPR calcium mobilization in HEK 293 mGluR2/CaR cells; [35S]-GTPγS binding with CHO membranes)
Format: cell-based
Conditions: potentiator / positive allosteric modulator activity at mGluR2; the patent does not say which of the two described assays (FLIPR or GTPγS)
Text: The pharmacological properties of the compounds of the invention can be analyzed using standard assays for functional activity. Examples of glutamate receptor assays are well known in the art as described in, for example, Aramori et al., 1992, Neuron, 8:757; Tanabe et al., 1992, Neuron, 8:169; Miller et al., 1995, J. Neuroscience, 15:6103; Balazs, et al., 1997, J. Neurochemistry, 1997, 69:151. The methodology described in these publications is incorporated herein by reference. Conveniently, the compounds of the invention can be studied by means of an assay that measures the mobilization of intracellular calcium, [Ca^2+]i in cells expressing mGluR2.
Fluorometric Imaging Plate Reader (FLIPR) analysis was used to detect allosteric activators of mGluR2 via calcium mobilization. […]
FLIPR experiments were done using a laser setting of 0.8 W and a 0.4 second CCD camera shutter speed. […] An addition of test compound (0.01 μM to 30 μM in duplicate) was made after 10 seconds of baseline fluorescent readings were recorded on FLIPR. Fluorescent signals were then recorded for an additional 75 seconds at which point a second addition of DCG-IV (0.2 μM) was made and fluorescent signals were recorded for an additional 65 seconds. Fluorescent signals were measured as the peak height of the response within the sample period. […]

T1 sequence (Q14416 19-819 limits assumed): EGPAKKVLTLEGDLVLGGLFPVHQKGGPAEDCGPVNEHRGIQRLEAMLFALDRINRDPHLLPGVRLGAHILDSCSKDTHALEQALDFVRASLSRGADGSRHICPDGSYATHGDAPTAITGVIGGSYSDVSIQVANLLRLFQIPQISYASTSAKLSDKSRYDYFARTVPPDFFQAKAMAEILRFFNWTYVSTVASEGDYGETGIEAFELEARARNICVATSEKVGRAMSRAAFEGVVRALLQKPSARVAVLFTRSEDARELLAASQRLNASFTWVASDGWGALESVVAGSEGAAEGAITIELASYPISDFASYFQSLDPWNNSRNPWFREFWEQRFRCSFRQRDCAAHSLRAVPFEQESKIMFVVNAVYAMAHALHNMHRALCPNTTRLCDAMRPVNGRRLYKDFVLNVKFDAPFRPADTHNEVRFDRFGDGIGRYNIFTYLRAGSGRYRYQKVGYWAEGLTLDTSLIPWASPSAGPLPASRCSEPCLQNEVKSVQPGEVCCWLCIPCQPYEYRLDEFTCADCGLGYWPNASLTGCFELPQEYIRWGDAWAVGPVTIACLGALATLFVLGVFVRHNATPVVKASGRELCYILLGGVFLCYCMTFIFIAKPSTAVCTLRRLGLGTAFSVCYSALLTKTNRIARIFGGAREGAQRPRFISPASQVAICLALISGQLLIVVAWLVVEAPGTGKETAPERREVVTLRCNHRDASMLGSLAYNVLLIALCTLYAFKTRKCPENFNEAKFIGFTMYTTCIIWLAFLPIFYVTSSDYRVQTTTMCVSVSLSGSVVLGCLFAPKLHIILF

EC50: 1110 nM
Structure (SMILES): O=C1CCn2c(CN3CCC(c4ccc(F)cc4)CC3)nc3cc(F)cc1c32 [Example 28.1, 8-Fluoro-2-[4-(4-fluoro-phenyl)-piperidin-1-ylmethyl]-4,5,9a,9b-tetrahydroimidazo[4,5,1-ij]quinolin-6-one]
